Laboratory results taken from article PMC8794255, “Small molecule inhibitor of Igf2bp1 represses Kras and a pro-oncogenic phenotype in cancer cells” (RNA Biology, 2021).
Where “and” joins values, the source holds several entries; their conditions need not be identical. Equal entries are not always repeated.

Key:
ES2 cells [1] = assay: qPCR of Igf2bp1 target RNAs in ES2 cells; assay type: cell-based, human
Method: Cells were grown for 12 hours in 12 well plates prior to incubation with the compound at different concentrations for an additional 12 or 24 hours. Total RNA was then extracted using EZ-RNA total RNA isolation kit (Biological Industries) and cDNA prepared from the RNA using the First Strand cDNA Synthesis kit (Quanta bio). Real time PCR was performed with Fast SYBR Green Master Mix (Thermo Fisher Scientific), and cDNA expression analysed with the Bio-Rad CFX Manager 3.1.

Igf2bp1 KH12 di-domain = biological target: T1, Igf2bp1 KH12 di-domain (Homo sapiens, UniProt Q9NZI8); assay: MST, Igf2bp1 KH12 di-domain; assay type: binding
T1 construct: 6xHis/GST (N, cleaved yes); made in house; host or cells: E. coli BL21(DE3)
Method: (§1) Recombinant full-length Igf2bp1 protein was labelled with RED-tris-NTA dye using a Monolith NT His-Tag Labelling Kit (NanoTemper) while RRM12, KH12 and KH34 di-domain peptides were labelled using the Protein Labelling Kit RED NHS 2nd generation (NanoTemper). Labelled proteins were spun at 15,000 g for 5 min to eliminate aggregates. All samples were 2X labelled protein mix of Igf2bp1 (200 nM) in PBST and were combined (1:1) with serial dilutions of compound or Kras6 RNA in binding buffer (10mMTris pH = 7.5, 100 mM NaCl, 0.1 mM EDTA, 0.06% IPEGAL, 0.02 μg/μL tRNA, 2 mM DTT, 0.1 μg/μL heparin) in final volume of 20 μL, room temperature for 15 min. Samples were then loaded into standard capillaries (NanoTemper) and read in the Monolith NT.115 scanner (NanoTemper) using the red filter with reading conditions of 95% LED power and 40% MST power, 5 sec fluorescence before, 30 sec MST on, 5 sec fluorescence after and 25 sec delay between samples. Results were analysed using the MO Control software (NanoTemper) for curve fitting to KD.
(§2) The open reading frame of Igf2bps were cloned into the pET-21(d) plasmid (Novagen) between the Nco1 and Xho1 sites, as previously described. […]

Igf2bp1 KH34 di-domain = biological target: T2, Igf2bp1 KH34 di-domain (Homo sapiens, UniProt Q9NZI8); assay: MST, Igf2bp1 KH34 di-domain; conditions: read-out: KD of binding to KH34
T2 construct: Human Igf2bp1 di-domains RRM12 (M1-P188) and KH34 (P387-A574); 6xHis (N, cleaved yes); made in house; host or cells: E. coli BL21(DE3)
Method: as §1, §2

La = biological target: T3, La (Homo sapiens, UniProt P05455); assay: FP counterscreen: La binding to Bcl2 RNA
T3 sequence (P05455 1-408): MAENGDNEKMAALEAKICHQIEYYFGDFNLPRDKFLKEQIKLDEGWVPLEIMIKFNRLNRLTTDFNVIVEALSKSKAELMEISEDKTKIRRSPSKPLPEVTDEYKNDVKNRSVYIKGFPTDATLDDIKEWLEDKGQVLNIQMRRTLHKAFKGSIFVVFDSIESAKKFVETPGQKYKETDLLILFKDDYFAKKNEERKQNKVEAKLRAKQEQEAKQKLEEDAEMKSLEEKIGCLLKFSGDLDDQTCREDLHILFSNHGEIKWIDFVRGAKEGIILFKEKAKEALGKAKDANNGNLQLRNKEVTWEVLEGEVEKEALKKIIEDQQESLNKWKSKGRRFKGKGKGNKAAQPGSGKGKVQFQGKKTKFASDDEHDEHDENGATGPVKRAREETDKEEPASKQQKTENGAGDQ

Igf2bp1 = biological target: T4, Igf2bp1 (Homo sapiens, UniProt Q9NZI8); assay: Microscale thermophoresis (MST), full-length Igf2bp1; conditions: full-length protein, read-out: KD of compound binding to Igf2bp1
T4 construct: Recombinant full-length Igf2bp1 protein was labelled with RED-tris-NTA dye; made in house
Method: as §1

Igf2bp2 = biological target: T5, Igf2bp2 (Homo sapiens, UniProt Q9Y6M1); assay: MST, Igf2bp2; assay type: binding
T5 construct: made in house

[2] = tested on: LKR-M cells expressing GFP alone; assay: Wound healing assay, LKR-M cells expressing GFP alone; assay type: cell-based, mouse; conditions: 20 μM 7773 vs DMSO
Method: (§3) Cells were seeded in 96 IncuCyte® ImageLock plates (20X10^3 cells per well) for 24 hours, to a near confluency of 95%, before the addition of increasing concentrations of compound. After a further 24 hours, wells were scratched using the IncuCyte® 96-well WoundMaker Tool, and the cells cultured for an additional 48 hours using the IncuCyte® S3 Live-Cell Analysis System (Essen BioScience). The plate was imaged at increments of 120 minutes for a period of 48 hours, and then analysed for relative wound healing.

H1299 cells = assay: Wound healing (cell migration) assay, H1299; assay type: cell-based, human
Method: as §3

Igf2bp1 RRM12 di-domain = biological target: T6, Igf2bp1 RRM12 di-domain (Homo sapiens, UniProt Q9NZI8); assay: MST, Igf2bp1 RRM12 di-domain; conditions: read-out: KD of binding to RRM12
T6 construct: Human Igf2bp1 di-domains RRM12 (M1-P188) and KH34 (P387-A574); 6xHis (N, cleaved yes); made in house; host or cells: E. coli BL21(DE3)
Method: as §1, §2

ES2 cells [3] = assay: Cell proliferation assay (Incucyte), ES2; assay type: cell-based, human; conditions: ES2, up to 20 μM
Method: ES2, H1299 and HEK293 cells were seeded in a 96 well plate (5X10^3 cells per well) for 24 hours before adding the compound at increasing concentrations. After an additional 24 hours, the plate was incubated in an IncuCyte® S3 Live-Cell Analysis System (Essen BioScience). The wells were filmed for 72 hours, and then analysed for proliferation rate Using IncuCyte® S3 Live-Cell Analysis System (Essen BioScience)

T2 sequence (Q9NZI8 387-574): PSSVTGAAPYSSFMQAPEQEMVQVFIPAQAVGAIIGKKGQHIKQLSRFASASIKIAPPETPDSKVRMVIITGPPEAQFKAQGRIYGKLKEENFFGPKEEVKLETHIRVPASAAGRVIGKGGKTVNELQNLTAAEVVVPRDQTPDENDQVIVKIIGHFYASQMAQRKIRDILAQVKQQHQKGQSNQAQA
T5 sequence (Q9Y6M1 whole entry, species assumed): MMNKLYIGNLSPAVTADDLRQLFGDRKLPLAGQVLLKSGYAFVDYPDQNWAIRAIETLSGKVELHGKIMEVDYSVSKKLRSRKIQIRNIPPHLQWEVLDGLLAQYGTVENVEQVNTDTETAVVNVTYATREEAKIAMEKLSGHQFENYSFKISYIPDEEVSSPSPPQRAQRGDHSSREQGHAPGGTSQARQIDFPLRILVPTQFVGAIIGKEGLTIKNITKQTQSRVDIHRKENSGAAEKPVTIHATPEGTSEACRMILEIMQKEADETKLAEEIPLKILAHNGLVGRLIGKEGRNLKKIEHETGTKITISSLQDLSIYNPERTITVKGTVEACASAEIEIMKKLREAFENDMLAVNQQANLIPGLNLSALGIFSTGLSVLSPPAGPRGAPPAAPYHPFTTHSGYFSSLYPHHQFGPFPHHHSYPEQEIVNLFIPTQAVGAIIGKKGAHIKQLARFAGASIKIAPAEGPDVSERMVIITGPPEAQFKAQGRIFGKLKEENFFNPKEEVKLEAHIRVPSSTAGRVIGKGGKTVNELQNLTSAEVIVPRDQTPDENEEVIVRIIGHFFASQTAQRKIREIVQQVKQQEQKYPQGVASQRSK
T6 sequence (Q9NZI8 1-188): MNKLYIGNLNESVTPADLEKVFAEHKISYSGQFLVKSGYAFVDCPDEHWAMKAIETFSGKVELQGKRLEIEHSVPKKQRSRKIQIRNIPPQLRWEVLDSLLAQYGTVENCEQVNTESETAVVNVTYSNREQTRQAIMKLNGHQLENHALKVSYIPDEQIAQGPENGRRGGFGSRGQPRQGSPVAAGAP
T1 sequence (Q9NZI8 194-369): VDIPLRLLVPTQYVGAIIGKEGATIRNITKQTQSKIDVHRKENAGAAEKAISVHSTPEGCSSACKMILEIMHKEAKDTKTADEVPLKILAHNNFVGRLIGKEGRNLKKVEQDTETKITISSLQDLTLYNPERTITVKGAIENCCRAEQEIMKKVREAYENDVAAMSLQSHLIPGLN
T4 sequence (Q9NZI8 whole entry): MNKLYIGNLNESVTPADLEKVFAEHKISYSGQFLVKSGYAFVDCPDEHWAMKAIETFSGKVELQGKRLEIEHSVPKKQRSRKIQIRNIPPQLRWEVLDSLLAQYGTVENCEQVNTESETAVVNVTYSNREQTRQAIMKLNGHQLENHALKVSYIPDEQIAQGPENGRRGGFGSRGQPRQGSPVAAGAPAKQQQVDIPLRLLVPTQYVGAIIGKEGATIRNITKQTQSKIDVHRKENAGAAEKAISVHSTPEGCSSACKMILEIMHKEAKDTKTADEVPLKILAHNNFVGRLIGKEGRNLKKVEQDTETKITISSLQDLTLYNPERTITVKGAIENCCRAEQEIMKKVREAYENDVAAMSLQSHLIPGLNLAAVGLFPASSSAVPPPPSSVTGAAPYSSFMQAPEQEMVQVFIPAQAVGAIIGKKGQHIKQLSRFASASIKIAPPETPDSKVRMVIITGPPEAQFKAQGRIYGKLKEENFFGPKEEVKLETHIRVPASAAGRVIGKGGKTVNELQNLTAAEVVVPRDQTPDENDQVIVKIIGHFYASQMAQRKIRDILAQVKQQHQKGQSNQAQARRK

- Binding to KH12 (Igf2bp1 KH12 di-domain): no binding was observed
- Kd (Igf2bp1 KH34 di-domain): 7.1 µM and 7.2 µM
- Effect on control RBP (La) binding to its target (Bcl2 RNA) (La): almost no effect
- IC50 (La; control RNA binding protein, read-out: IC50, inhibition of La binding to Bcl2 RNA): > 100 µM
- Kd (Igf2bp1): 17 µM
- Kd (Igf2bp2; IGF2BP2 50nM, read-out: KD of binding to Igf2bp2): > 150 µM
- Binding to Igf2bp2 (Igf2bp2; even at concentrations that almost saturate binding to Igf2bp1): did not significantly bind
- Kd (Igf2bp1 RRM12 di-domain): 1.5 µM
Compound: O=C(c1ccc(Cn2cnnn2)cc1)N1CCCC(Nc2ccc3c(c2)OCO3)C1 (stereo not shown) [compound 7773]
- Steady state level of CD44 RNA (ES2 cells [1]; ES2, 20 μM 7773, 12 and 24 hours): strongly reduced after 12 hours, but appeared to recover after 24 hours
- Steady state levels of CD44, Kras, cMyc and SRF RNA (ES2 cells [1]; ES2, 20 μM 7773, 12 hours): all of the assayed RNAs were reduced
- Steady state levels of CD44, Kras, cMyc and SRF RNA (ES2 cells [1]; ES2, 20 μM 7773, 24 hours): 3 of the 4 RNAs showing similar or even enhanced reduction
- Levels of control RNAs that are not targets of Igf2bp1 (ES2 cells [1]; ES2, 24 hours): not significantly affected
- Effect on migration of cells expressing GFP alone [2]: unaffected
- Wound healing (H1299 cells; H1299, 20 μM): strongly inhibited
- Wound healing (H1299 cells; H1299, lowest concentration 5 μM): discernible inhibition
- Cell proliferation (ES2 cells [3]): remarkably unaffected
